Laboratory results: patent US20100016401A1, “3-AZA-BICYCLO[3.1.0]HEXANE DERIVATIVES” (Actelion Phamaceuticals Ltd., priority 2006, published 2010)

Legend:
human orexin-1 receptor = target: T1, human orexin-1 receptor (Homo sapiens, UniProt O43613); experiment: Intracellular calcium measurements (FLIPR), orexin receptor antagonistic activity, OX1; format: cell-based; details: CHO cells expressing human orexin-1 receptor, 10 nM orexin-A as agonist
T1 construct: expressed in transfected cells; host or cells: CHO (Chinese hamster ovary) cells, grown under G418 selection
T1 sequence (O43613 1-425): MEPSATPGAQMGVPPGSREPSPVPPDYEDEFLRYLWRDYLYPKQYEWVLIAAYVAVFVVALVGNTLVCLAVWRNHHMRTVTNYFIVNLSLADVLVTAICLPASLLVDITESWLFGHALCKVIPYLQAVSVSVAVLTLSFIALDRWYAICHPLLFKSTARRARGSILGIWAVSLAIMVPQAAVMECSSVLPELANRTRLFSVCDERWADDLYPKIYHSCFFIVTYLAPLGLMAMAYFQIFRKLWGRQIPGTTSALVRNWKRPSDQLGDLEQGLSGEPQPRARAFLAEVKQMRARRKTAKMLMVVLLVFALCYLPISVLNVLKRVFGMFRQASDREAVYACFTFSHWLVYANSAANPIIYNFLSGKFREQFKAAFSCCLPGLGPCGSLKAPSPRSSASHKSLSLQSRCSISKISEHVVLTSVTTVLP
Method: (§1) The orexin receptor antagonistic activity of the compounds of formula (I) is determined in accordance with the following experimental method.
(§2) Intracellular Calcium Measurements:
(§3) Chinese hamster ovary (CHO) cells expressing the human orexin-1 receptor and the human orexin-2 receptor, respectively, are grown in culture medium (Ham F-12 with L-Glutamine) containing 300 μg/ml G418, 100 U/ml penicillin, 100 μg/ml streptomycin and 10% inactivated fetal calf serum (FCS). The cells are seeded at 80,000 cells/well into 96-well black clear bottom sterile plates (Costar) which have been precoated with 1% gelatine in Hanks' Balanced Salt Solution (HBSS). All reagents are from Gibco BRL. The seeded plates are incubated overnight at 37° C. in 5% CO2.
(§4) Human orexin-A as an agonist is prepared as 1 mM stock solution in MeOH: water (1:1), diluted in HBSS containing 0.1% bovine serum albumin (BSA) and 2 mM HEPES for use in the assay at a final concentration of 10 nM.
(§5) Antagonists are prepared as 10 mM stock solution in DMSO, then diluted in 96-well plates, first in DMSO, then in HBSS containing 0.1% bovine serum albumin (BSA) and 2 mM HEPES.
(§6) On the day of the assay, 100 μl of loading medium (HBSS containing 1% FCS, 2 mM HEPES, 5 mM probenecid (Sigma) and 3 μM of the fluorescent calcium indicator fluo-3 AM (1 mM stock solution in DMSO with 10% pluronic acid) (Molecular Probes) is added to each well.
(§7) The 96-well plates are incubated for 60 min at 37° C. in 5% CO2. The loading solution is then aspirated and cells are washed 3 times with 200 μl HBSS containing 2.5 mM probenecid, 0.1% BSA, 2 mM HEPES. 100 μl of that same buffer is left in each well.
(§8) Within the Fluorescent Imaging Plate Reader (FLIPR, Molecular Devices), antagonists are added to the plate in a volume of 50 μl, incubated for 20 min and finally 100 μl of agonist is added. Fluorescence is measured for each well at 1 second intervals, and the height of each fluorescence peak is compared to the height of the fluorescence peak induced by 10 nM orexin-A with buffer in place of antagonist.

human orexin-2 receptor = target: T2, human orexin-2 receptor (Homo sapiens, UniProt O43614); experiment: Intracellular calcium measurements (FLIPR), orexin receptor antagonistic activity, OX2; format: cell-based; details: CHO cells expressing human orexin-2 receptor, 10 nM orexin-A as agonist
T2 construct: expressed in transfected cells; host or cells: CHO (Chinese hamster ovary) cells, grown under G418 selection
T2 sequence (O43614 1-444): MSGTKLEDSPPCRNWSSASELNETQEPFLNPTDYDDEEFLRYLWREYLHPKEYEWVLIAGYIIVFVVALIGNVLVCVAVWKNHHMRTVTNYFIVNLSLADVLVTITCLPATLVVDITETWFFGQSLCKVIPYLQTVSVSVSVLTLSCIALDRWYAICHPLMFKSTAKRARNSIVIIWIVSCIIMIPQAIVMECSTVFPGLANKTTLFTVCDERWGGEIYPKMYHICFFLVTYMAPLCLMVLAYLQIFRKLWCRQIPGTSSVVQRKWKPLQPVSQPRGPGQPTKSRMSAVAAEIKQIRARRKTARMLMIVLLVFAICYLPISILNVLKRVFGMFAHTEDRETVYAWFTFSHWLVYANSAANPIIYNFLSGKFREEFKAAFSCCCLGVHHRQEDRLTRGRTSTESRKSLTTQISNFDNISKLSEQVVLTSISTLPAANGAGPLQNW
Method: as §1, §2, §3, §4, §5, §6, §7, §8

IC50 (human orexin-1 receptor) [nM]	IC50 (human orexin-2 receptor) [nM]	SMILES
954	172	COCCOc1cccc(-c2sc(C)nc2C(=O)N2C[C@H]3C[C@H]3[C@H]2CNC(=O)c2cccc3occc23)c1 (relative stereo) [Example 333, Benzofuran-4-carboxylic acid ((1R*,2S*,5S*)-3-{5-[3-(2-methoxy-ethoxy)-phenyl]-2-methyl-thiazole-4-carbonyl}-3-aza-bicyclo[3.1.0]hex-2-ylmethyl)-amide]
1300	80	Cc1cccc(-c2sc(C)nc2C(=O)N2C[C@H]3C[C@H]3[C@H]2CNC(=O)c2cnc(CC(C)C)c(C)c2)c1 (relative stereo) [Example 100, 6-isobutyl-5-methyl-N-[(1R*,2S*,5S*)-3-(2-methyl-5-m-tolyl-thiazole-4-carbonyl)-3-aza-bicyclo[3.1.0]hex-2-ylmethyl]-nicotinamide]
2170	94	COc1ccc(-c2ocnc2C(=O)N2C[C@H]3C[C@H]3[C@H]2CNC(=O)c2cccc3occc23)cc1 (relative stereo) [Example 33, benzofuran-4-carboxylic acid {(1R*,2S*,5S*)-3-[5-(4-methoxy-phenyl)-oxazole-4-carbonyl]-3-aza-bicyclo[3.1.0]hex-2-ylmethyl}-amide]
141	48	Cc1nc(C(=O)N2C[C@H]3C[C@H]3[C@H]2CNC(=O)c2cccc3c2OCCO3)c(-c2cccc(C#N)c2)s1 (relative stereo) [Example 336, 2,3-Dihydro-benzo[1,4]dioxine-5-carboxylic acid {(1R*,2S*,5S*)-3-[5-(3-cyano-phenyl)-2-methyl-thiazole-4-carbonyl]-3-aza-bicyclo[3.1.0]hex-2-ylmethyl}-amide]
23	85	Cc1cccc(-c2sc(C#CCO)nc2C(=O)N2C[C@H]3C[C@H]3[C@H]2CNC(=O)c2c(C)nc3sccn23)c1 (relative stereo) [Example 387, 6-Methyl-imidazo[2,1-b]thiazole-5-carboxylic acid {(1R*,2S*,5S*)-3-[2-(3-hydroxy-prop-1-ynyl)-5-m-tolyl-thiazole-4-carbonyl]-3-aza-bicyclo[3.1.0]hex-2-ylmethyl}-amide]
19	17	Cc1cccc(-c2sc(CCCO)nc2C(=O)N2C[C@H]3C[C@H]3[C@H]2CNC(=O)c2c(C)nc3sccn23)c1 (relative stereo) [Example 389, 6-Methyl-imidazo[2,1-b]thiazole-5-carboxylic acid {(1R*,2S*,5S*)-3-[2-(3-hydroxy-propyl)-5-m-tolyl-thiazole4-carbonyl]-3-aza-bicyclo[3.1.0]hex-2-ylmethyl}-amide]
241	196	Cc1cccc(-c2sc(C)nc2C(=O)N2C[C@H]3C[C@H]3[C@H]2CNC(=O)c2cccc3c2CCCO3)c1 (relative stereo) [Example 182, Chroman-5-carboxylic acid [(1R*,2S*,5S*)-3-(2-methyl-5-m-tolyl-thiazole-4-carbonyl)-3-aza-bicyclo[3.1.0]hex-2-ylmethyl]-amide]
963	59	Cc1nc(C(=O)N2C[C@H]3C[C@H]3[C@H]2CNC(=O)c2cccc3c2OCO3)c(-c2cccc(F)c2)s1 (relative stereo) [Example 242, Benzo[1,3]dioxole-4-carboxylic acid {(1R*,2S*,5S*)-3-[5-(3-fluoro-phenyl)-2-methyl-thiazole-4-carbonyl]-3-aza-bicyclo[3.1.0]hex-2-ylmethyl}-amide]
201	237	Cc1cccc(-c2sc(C)nc2C(=O)N2C[C@H]3C[C@H]3[C@H]2CNC(=O)c2ccccc2N2CCOCC2)c1 (relative stereo) [Example 154, N-[(1R*,2S*,5S*)-3-(2-Methyl-5-m-tolyl-thiazole-4-carbonyl)-3-aza-bicyclo[3.1.0]hex-2-ylmethyl]-2-morpholin-4-yl-benzamide]
